Consider 15 molecules from article PMC10892142, “Synthesis and In Vitro Antitumor Activity Evaluation of Gefitinib-1,2,3-Triazole Derivatives” (Molecules, 2024).

Data set [1] deals with A549 cells. The data set is described as follows: CCK-8 assay, A549 cells. The class given is cell-based. The settings on record: CCK-8, 48 h, mean ± SD, n = 3. The protocol: (§1) Next, cell viability was determined according to the instructions of the CCK-8 assay. Then, 10 μL CCK-8 solution was added to each well of the plate and incubated for 1–4 h in the incubator. […] The percentage of viable cells was measured using the following formula where three independent experiments were performed: [(A450sample − A450blank)/(A450control − A450blank)] × 100%.

For data set [2], the system named is NCI-H1437 cells. Nature of the data set: CCK-8 assay, NCI-H1437 cells. The settings on record: CCK-8, 48 h, mean ± SD, n = 3. It is filed as cell-based. As to the method: as §1
(Tetrazolium assays rely on reduction of a dye to a coloured formazan, in cell work by metabolically active cells.)

Data set [3] deals with NCI-H1299 cells. Nature of the data set: CCK-8 assay, NCI-H1299 cells. The settings on record: CCK-8, 48 h, mean ± SD, n = 3. The class given is cell-based, human. As to the method: as §1
Data set [4] relates to IDO1. The settings on record: read-out: IDO1 inhibitory activity IC50; cited from earlier work.

One may read the IC50 as the concentration at which inhibition is half-maximal. `COc1cc2ncnc(Nc3cccc(-c4cn(-c5cccc(F)c5)nn4)c3)c2cc1OCCCN1CCOCC1` [Compound 4i, N-(3-(1-(3-Fluorophenyl)-1H-1,2,3-triazol-4-yl)phenyl)-7-methoxy-6-(3-morpholinopropoxy)quinazolin-4-amine]: the IC50 came to 13 ± 0.29 µM in data set [1] (Homo sapiens, A549); 4.77 ± 0.32 µM in data set [2] (Homo sapiens, NCI-H1437); 9.35 ± 0.31 µM in data set [3] (Homo sapiens, NCI-H1299).

As usually defined, the melting point is the temperature of the solid-liquid transition. Take `COc1cc2ncnc(Nc3cccc(-c4cn(-c5ccccc5Cl)nn4)c3)c2cc1OCCCN1CCOCC1` [Compound 4h, N-(3-(1-(2-Chlorophenyl)-1H-1,2,3-triazol-4-yl)phenyl)-7-methoxy-6-(3-morpholinopropoxy)quinazolin-4-amine]: the melting point fell in the range of 167 to 168 °C. The IC50 in data set [1] (Homo sapiens, A549) was found to be 9.81 ± 0.34 µM. In data set [2] (Homo sapiens, NCI-H1437), this molecule gave a half-maximal inhibitory concentration (IC50) of 3.09 ± 0.13 µM. In addition, inhibition in data set [3] (Homo sapiens, NCI-H1299) was half-maximal at 7.69 ± 0.11 µM (IC50).

Take `COc1cc2ncnc(Nc3cccc(-c4cn(Cc5ccc(F)c(Cl)c5)nn4)c3)c2cc1OCCCN1CCOCC1` [Compound 4a, N-(3-(1-(3-Chloro-4-fluorobenzyl)-1H-1,2,3-triazol-4-yl)phenyl)-7-methoxy-6-(3-morpholinopropoxy)quinazolin-4-amine]: the melting point lay within 192 to 193 °C. In data set [1] (Homo sapiens, A549), this molecule gave a 50% inhibitory concentration (IC50) of 6.81 ± 0.33 µM. The IC50 in data set [2] (Homo sapiens, NCI-H1437) was found to be 2.05 ± 0.03 µM. In addition, the 50% inhibitory concentration (IC50) in data set [3] (Homo sapiens, NCI-H1299) came to 7.59 ± 0.19 µM.

Turning to `COc1cc2ncnc(Nc3cccc(-c4cn(Cc5cc(Br)cc(Br)c5)nn4)c3)c2cc1OCCCN1CCOCC1` [Compound 4m, N-(3-(1-(3,5-Dibromobenzyl)-1H-1,2,3-triazol-4-yl)phenyl)-7-methoxy-6-(3-morpholinopropoxy)quinazolin-4-amine], the IC50 in data set [1] (Homo sapiens, A549) was found to be 2.39 ± 0.3 µM; in data set [2] (Homo sapiens, NCI-H1437), 2.53 ± 0.11 µM; in data set [3] (Homo sapiens, NCI-H1299), 4.79 ± 0.13 µM.

On to `COc1cc2ncnc(Nc3cccc(-c4cn(-c5ccc(Cl)cc5)nn4)c3)c2cc1OCCCN1CCOCC1` [Compound 4d, N-(3-(1-(4-Chlorophenyl)-1H-1,2,3-triazol-4-yl)phenyl)-7-methoxy-6-(3-morpholinopropoxy)quinazolin-4-amine], for which the melting point lay within 162 to 163 °C. The same molecule had a half-maximal inhibitory concentration (IC50) in data set [1] (Homo sapiens, A549) of 9.04 ± 0.41 µM. In data set [2] (Homo sapiens, NCI-H1437), this molecule displayed a concentration for half-maximal inhibition (IC50) of 6.41 ± 0.54 µM. In addition, the 50% inhibitory concentration (IC50) in data set [3] (Homo sapiens, NCI-H1299) stood at 11.4 ± 0.97 µM.

`COc1cc2ncnc(Nc3cccc(-c4cn(-c5ccc([N+](=O)[O-])c(C)c5)nn4)c3)c2cc1OCCCN1CCOCC1` [Compound 4f, 7-Methoxy-N-(3-(1-(3-methyl-4-nitrophenyl)-1H-1,2,3-triazol-4-yl)phenyl)-6-(3-morpholinopropoxy)quinazolin-4-amine] registered a melting point of 175 to 176 °C. Half-maximal inhibition in data set [1] (Homo sapiens, A549) (IC50) required 13.7 ± 0.71 µM. The same molecule registered an IC50 in data set [2] (Homo sapiens, NCI-H1437) of 9.27 ± 0.4 µM. In data set [3] (Homo sapiens, NCI-H1299), this molecule yielded an IC50 of 13.3 ± 0.52 µM.

“7-Methoxy-N-(3-(1-(2-methyl-3-nitrophenyl)-1H-1,2,3-triazol-4-yl)phenyl)-6-(3-morpholinopropoxy)quinazolin-4-amine [Compound 4g]”: the IC50 in data set [1] was found to be 4.65 ± 0.08 µM; in data set [2], 2.15 ± 0.1 µM; in data set [3] it was 6.02 ± 0.12 µM.

Consider `COc1cc2ncnc(Nc3cccc(-c4cn(Cc5ccc(C)cc5)nn4)c3)c2cc1OCCCN1CCOCC1` [Compound 4n, 7-methoxy-N-(3-(1-(4-methylbenzyl)-1H-1,2,3-triazol-4-yl)phenyl)-6-(3-morpholinopropoxy)quinazolin-4-amine], for which the melting point was in the range of 168 to 169 °C. The IC50 in data set [1] (Homo sapiens, A549) is 10.4 ± 0.82 µM. For the same molecule, the 50% inhibitory concentration (IC50) in data set [2] (Homo sapiens, NCI-H1437) was 5.79 ± 0.88 µM. The half-maximal inhibitory concentration (IC50) in data set [3] (Homo sapiens, NCI-H1299) came to 5.91 ± 0.44 µM.

As for `COCCOc1cc2ncnc(Nc3cccc(-c4cn(Cc5ccccc5Br)nn4)c3)c2cc1OCCOC` [compound e], the 50% inhibitory concentration (IC50) in data set [4] was 320 ± 70 nM.

In turn, `COc1cc2ncnc(Nc3cccc(-c4cn(Cc5ccccc5C#N)nn4)c3)c2cc1OCCCN1CCOCC1` [Compound 4l, 2-((4-(3-((7-Methoxy-6-(3-morpholinopropoxy)quinazolin-4-yl)amino)phenyl)-1H-1,2,3-triazol-1-yl)methyl)benzonitrile] displayed a melting point of 167 to 168 °C. For the same molecule, in data set [1] (Homo sapiens, A549), the half-maximal inhibitory concentration (IC50) stood at 7.53 ± 0.66 µM. Moreover, in data set [2] (Homo sapiens, NCI-H1437), the IC50 worked out at 2.23 ± 0.26 µM. In data set [3] (Homo sapiens, NCI-H1299), this molecule showed an IC50 of 5.43 ± 0.24 µM.

On to `Clc1ccc(Nc2cnn[nH]2)cc1` [Vertex-AT], for which, in data set [4], the IC50 was 23 nM.

As to `Oc1ccc(Cl)cc1-c1cnn[nH]1` [MMG-0358], in data set [4], the IC50 is 82 nM.

As to `COc1cc2ncnc(Nc3cccc(-c4cn(-c5ccccc5Br)nn4)c3)c2cc1OCCCN1CCOCC1` [Compound 4e, N-(3-(1-(2-Bromophenyl)-1H-1,2,3-triazol-4-yl)phenyl)-7-methoxy-6-(3-morpholinopropoxy)quinazolin-4-amine], the melting point lay in the range of 175 to 176 °C. The same molecule came in with a half-maximal inhibitory concentration (IC50) in data set [1] (Homo sapiens, A549) of 8.62 ± 0.76 µM. The same molecule registered an IC50 in data set [2] (Homo sapiens, NCI-H1437) of 11.2 ± 0.95 µM. Moreover, the IC50 in data set [3] (Homo sapiens, NCI-H1299) is 11.9 ± 0.32 µM.

In the case of `COc1cc2ncnc(Nc3cccc(-c4cn(Cc5ccc(Br)cc5)nn4)c3)c2cc1OCCCN1CCOCC1` [Compound 4k, N-(3-(1-(4-Bromobenzyl)-1H-1,2,3-triazol-4-yl)phenyl)-7-methoxy-6-(3-morpholinopropoxy)quinazolin-4-amine], the melting point is 177 to 178 °C. This molecule gave an IC50 in data set [1] (Homo sapiens, A549) of 8.95 ± 0.99 µM. Besides, in data set [2] (Homo sapiens, NCI-H1437), half-maximal inhibition (IC50) was put at 5.95 ± 0.72 µM. Further, the 50% inhibitory concentration (IC50) in data set [3] (Homo sapiens, NCI-H1299) came to 7.15 ± 0.12 µM.

The molecule `COc1cc2ncnc(Nc3cccc(-c4cn(-c5cccc6c5C(=O)N(C5CCC(=O)NC5=O)C6=O)nn4)c3)c2cc1OCCCN1CCOCC1` (stereo not drawn) [Compound 4j, 2-(2,6-Dioxopiperidin-3-yl)-4-(4-(3-((7-methoxy-6-(3-morpholinopropoxy)quinazolin-4-yl)amino)phenyl)-1H-1,2,3-triazol-1-yl)isoindoline-1,3-dione] displayed a melting point of 187 to 188 °C. In data set [1] (Homo sapiens, A549), this molecule registered an IC50 of 11.4 ± 0.89 µM. This molecule came in with an IC50 in data set [2] (Homo sapiens, NCI-H1437) of 6.6 ± 0.07 µM. Further, the concentration for half-maximal inhibition (IC50) in data set [3] (Homo sapiens, NCI-H1299) worked out at 12 ± 0.33 µM.
